Patent US20090191173A1, “Induction Of Neurogenesis And Stem Cell Therapy In Combination With Copolymer 1” (priority 2004, published 2009)

What was measured:
[1] = system: neural progenitor cells (NPCs); assay: Neurogenesis from NPCs co-cultured with microglia pre-activated by aggregated Aβ and cytokines; format: cell-based, mouse; conditions: 10 days; Aβ 5 μM 48 h, cytokines 10 ng/ml
Protocol: (xx) Reagents. Recombinant mouse IFN-γ and IL-4 (both containing endotoxin at a concentration below 0.1 ng/μg cytokine) were obtained from R&D Systems (Minneapolis, Minn.). β-amyloid peptides [amyloid protein fragment 1-40 and 1-42 (Aβ1-40/1-42)] were purchased from Sigma-Aldrich, St. Louis, Mo. The Aβ peptides were dissolved in endotoxin-free water, and Aβ aggregates were formed by incubation of Aβ, as described (Ishii et al., 2000). (xxv) Neural progenitor cell culture. Coronal sections (2 mm thick) of tissue containing the subventricular zone of the lateral ventricle were obtained from the brains of adult C57B1/6J mice. […] After centrifugation at 110×g for 15 min at room temperature, the tissue was mechanically dissociated by pipette trituration. Cells obtained from single-cell suspensions were plated (3500 cells/cm^2) in 75-cm^2 Falcon tissue-culture flasks (BD Biosciences, San Diego, Calif.), in NPC-culturing medium [Dulbecco's modified Eagles's medium (DMEM)/F12 medium (Gibco/Invitrogen, Carlsbad, Calif.) containing 2 mM L-glutamine, 0.6% glucose, 9.6 μg/ml putrescine, 6.3 ng/ml progesterone, 5.2 ng/ml sodium selenite, 0.02 mg/ml insulin, 0.1 mg/ml transferrin, 2 μg/ml heparin (all from Sigma-Aldrich, Rehovot, Israel), fibroblast growth factor-2 (human recombinant, 20 ng/ml), and epidermal growth factor (human recombinant, 20 ng/ml; both from Peprotech, Rocky Hill, N.J.)]. Spheres were passaged every 4-6 days and replated as single cells. Green fluorescent protein (GFP)-expressing NPCs were obtained as previously described (Pluchino et al., 2003). (xxvi) Primary microglial culture. Brains from neonatal (P0-P1) C57B1/6J mice were stripped of their meninges and minced with scissors under a dissecting microscope (Zeiss, Stemi DV4, Germany) in Leibovitz-15 medium (Biological Industries, Kibbutz Beit Ha-Emek, Israel). […] The cell suspension was washed in culture medium for glial cells [DMEM supplemented with 10% fetal calf serum (FCS; Sigma-Aldrich, Rehovot), L-glutamine (1 mM), sodium pyruvate (1 mM), penicillin (100 U/ml), and streptomycin ([…])] and cultured at 37° C./5% CO2 in 75-cm^2 Falcon tissue-culture flasks (BD Biosciences) coated with poly-D-lysine (PDL) (10 mg/ml; Sigma-Aldrich, Rehovot) in borate buffer (2.37 g borax and 1.55 g boric acid dissolved in 500 ml sterile water, pH 8.4) for 1 h, then rinsed thoroughly with sterile, glass-distilled water. Half of the medium was changed after 6 h in culture and every 2nd day thereafter, starting on day 2, for a total culture time of 10-14 days. […]

[2] = system: aNPCs; assay: Neuronal differentiation of aNPCs with CD4+ T cells, T cell-conditioned medium or cytokines; format: cell-based, mouse; conditions: 5 days in culture with cytokine, concentrations as low as 1 ng/ml
Protocol: (xvii) Co-culturing of neural progenitor cells and T cells. CD4+ T cells were purified from lymph nodes of 8-week-old C57B16/J mice as previously described (Kipnis et al., 2004). T cells were activated in RPMI medium supplemented with L-glutamine (2 mM), 2-mercaptoethanol (5×10^−5 M), sodium pyruvate (1 mM), penicillin (100 IU/ml), streptomycin (100 μg/ml), nonessential amino acids (1 ml/100 ml), and autologous serum 2% (v/v) in the presence of mouse recombinant IL-2 (mrIL-2; 5 ng/ml) and soluble anti-CD28 and anti-CD3. antibodies (1 ng/ml). T cells were co-cultured (5×10^4 cells/well) with aNPCs (5×10^4 cells/well) for 5 d on cover slips coated with Matrigel (BD Biosciences) in 24-well plates. The cultures were then fixed with 2.5% paraformaldehyde in PBS for 30 min at room temperature and stained for neuronal markers.
We therefore sought to determine whether direct interaction between aNPCs and T cells would also result in an altered pattern of aNPC differentiation. To address this question, we activated CD4+ T cells in vitro by a cognate protocol (with anti-CD3 antibodies, anti-CD28 antibodies, and IL-2) for 24 h and then allowed their activation to continue in co-cultures with aNPCs in a transwell culture system. […] After 5 days in culture the aNPCs in the lower chamber were fixed and analyzed for the appearance of newly formed neurons. […]

## IL-4: recombinant interleukin-4
[1]
  neurogenesis (GFP+/βIIIT+ cells) from NPCs co-cultured with treated microglia: partially counteracted the adverse effect of the aggregated Aβ
[2]
  β-III-tubulin expression in aNPCs: no change in β-III-tubulin expression
